# Source: PubChem BioAssay AID1963982 (Molecular Pharmacology Branch, DTP, NCI, 2024)
# “And” between values parts separate entries of the source, which are not always exact repeats. Equal entries are not always repeated.
# Test system: 313798-341-R-J2-PDC spheroids, viability
# Test: Anticancer human tumor 313798-341-R-J2-PDC patient-derived cervical squamous cell carcinoma cell line growth inhibition [PI3K]
# Conditions: spheroids with HUVEC and MSC; for viability, T/C: stronger effect = lower value
# In short: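 Spheroid viability read-out. Co-cultures contained the tumor line plus HUVEC and human MSCs. Each agent was paired with a PI3K inhibitor (inavolisib, alpelisib, duvelisib, copanlisib) across half-log dilutions starting at clinical Cmax, or at 10 microM when Cmax was unknown.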
# [1] = curve of first compound, second compound 0.0316 µM
# [2] = curve of first compound, second compound 0.1 µM
# [3] = curve of first compound, second compound 0.316 µM
# [4] = curve of first compound, second compound 1 µM
# [5] = second compound 0.0316 µM, first compound 0.000316 µM
# [6] = second compound 0.0316 µM, first compound 0.001 µM
# [7] = second compound 0.0316 µM, first compound 0.00316 µM
# [8] = second compound 0.0316 µM, first compound 0.01 µM
# [9] = second compound 0.0316 µM, first compound 0.0316 µM
# [10] = second compound 0.0316 µM, first compound 0.1 µM
# [11] = second compound 0.1 µM, first compound 0.000316 µM
# [12] = second compound 0.1 µM, first compound 0.001 µM
# [13] = second compound 0.1 µM, first compound 0.00316 µM
# [14] = second compound 0.1 µM, first compound 0.01 µM
# [15] = second compound 0.1 µM, first compound 0.0316 µM
# [16] = second compound 0.1 µM, first compound 0.1 µM
# [17] = second compound 0.316 µM, first compound 0.000316 µM
# [18] = second compound 0.316 µM, first compound 0.001 µM
# [19] = second compound 0.316 µM, first compound 0.00316 µM
# [20] = second compound 0.316 µM, first compound 0.01 µM
# [21] = second compound 0.316 µM, first compound 0.0316 µM
# [22] = second compound 0.316 µM, first compound 0.1 µM
# [23] = second compound 1 µM, first compound 0.000316 µM
# [24] = second compound 1 µM, first compound 0.001 µM
# [25] = second compound 1 µM, first compound 0.00316 µM
# [26] = second compound 1 µM, first compound 0.01 µM
# [27] = second compound 1 µM, first compound 0.0316 µM
# [28] = second compound 1 µM, first compound 0.1 µM
# 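Further: spheroids exposed to compounds for seven days.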
# 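Wherever viability, T/C is given: 100% = DMSO vehicle control viability.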
smiles,measurement,setting,value
Cn1ncnc1[C@H]1c2n[nH]c(=O)c3cc(F)cc(c23)N[C@@H]1c1ccc(F)cc1 + CC(Nc1ccc2c(c1)OCCn1cc(N3C(=O)OCC3C(F)F)nc1-2)C(N)=O,IC50,"curve of first compound, second compound 0.00316 µM",> 100 nM
same,IC50,"curve of first compound, second compound 0.01 µM",> 100 nM
same,IC50,[1],> 100 nM
same,IC50,[2],> 100 nM
same,IC50,[3],> 100 nM
same,IC50,[4],22.5 nM
same,"viability, T/C","second compound 0.00316 µM, first compound 0.000316 µM",104%
same,"viability, T/C","second compound 0.00316 µM, first compound 0.001 µM",96.2%
same,"viability, T/C","second compound 0.00316 µM, first compound 0.00316 µM",99.1%
same,"viability, T/C","second compound 0.00316 µM, first compound 0.01 µM",98.1%
same,"viability, T/C","second compound 0.00316 µM, first compound 0.0316 µM",94.9%
same,"viability, T/C","second compound 0.00316 µM, first compound 0.1 µM",84.7%
same,"viability, T/C","second compound 0.01 µM, first compound 0.000316 µM",95.7%
same,"viability, T/C","second compound 0.01 µM, first compound 0.001 µM",104%
same,"viability, T/C","second compound 0.01 µM, first compound 0.00316 µM",88.5%
same,"viability, T/C","second compound 0.01 µM, first compound 0.01 µM",93.5%
same,"viability, T/C","second compound 0.01 µM, first compound 0.0316 µM",92.8%
same,"viability, T/C","second compound 0.01 µM, first compound 0.1 µM",83.5%
same,"viability, T/C",[5],107%
same,"viability, T/C",[6],102%
same,"viability, T/C",[7],115%
same,"viability, T/C",[8],106%
same,"viability, T/C",[9],100%
same,"viability, T/C",[10],100%
same,"viability, T/C",[11],102%
same,"viability, T/C",[12],102%
same,"viability, T/C",[13],91.7%
same,"viability, T/C",[14],89%
same,"viability, T/C",[15],96.9%
same,"viability, T/C",[16],72.8%
same,"viability, T/C",[17],77.2%
same,"viability, T/C",[18],78%
same,"viability, T/C",[19],78.3%
same,"viability, T/C",[20],73.6%
same,"viability, T/C",[21],71.3%
same,"viability, T/C",[22],58.1%
same,"viability, T/C",[23],57.5%
same,"viability, T/C",[24],57%
same,"viability, T/C",[25],58.3%
same,"viability, T/C",[26],48.1%
same,"viability, T/C",[27],52.1%
same,"viability, T/C",[28],38.1%
CC(C)n1nc(-c2ccc3oc(N)nc3c2)c2c(N)ncnc21 + Cc1nc(NC(=O)N2CCCC2C(N)=O)sc1-c1ccnc(C(C)(C)C(F)(F)F)c1,IC50,[1],59 nM
same,IC50,[2],59.6 nM
same,IC50,[3],46.6 nM
same,IC50,[4],25.5 nM
same,IC50,"curve of first compound, second compound 3.16 µM",4.22 nM
same,IC50,"curve of first compound, second compound 10 µM",< 0.316 nM
same,"viability, T/C",[5],91.6%
same,"viability, T/C",[6],96%
same,"viability, T/C",[7],107%
same,"viability, T/C",[8],94.6%
same,"viability, T/C",[9],67.5%
same,"viability, T/C",[10],35.3%
same,"viability, T/C",[11],100%
same,"viability, T/C",[12],93.6%
same,"viability, T/C",[13],96.9%
same,"viability, T/C",[14],91.1%
same,"viability, T/C",[15],66.5%
same,"viability, T/C",[16],36.5%
same,"viability, T/C",[17],98.6%
same,"viability, T/C",[18],91.6%
same,"viability, T/C",[19],97.8%
same,"viability, T/C",[20],76.8%
same,"viability, T/C",[21],56.6%
same,"viability, T/C",[22],39%
same,"viability, T/C",[23],92%
same,"viability, T/C",[24],84.2%
same,"viability, T/C",[25],77.3%
same,"viability, T/C",[26],64.4%
same,"viability, T/C",[27],46%
same,"viability, T/C",[28],30%
same,"viability, T/C","second compound 3.16 µM, first compound 0.000316 µM",63.9%
same,"viability, T/C","second compound 3.16 µM, first compound 0.001 µM",55.1%
same,"viability, T/C","second compound 3.16 µM, first compound 0.00316 µM",54.2%
same,"viability, T/C","second compound 3.16 µM, first compound 0.01 µM",43.5%
same,"viability, T/C","second compound 3.16 µM, first compound 0.0316 µM",34.5%
same,"viability, T/C","second compound 3.16 µM, first compound 0.1 µM",21.4%
same,"viability, T/C","second compound 10 µM, first compound 0.000316 µM",35.2%
same,"viability, T/C","second compound 10 µM, first compound 0.001 µM",32.2%
same,"viability, T/C","second compound 10 µM, first compound 0.00316 µM",30.9%
same,"viability, T/C","second compound 10 µM, first compound 0.01 µM",25.1%
same,"viability, T/C","second compound 10 µM, first compound 0.0316 µM",23.9%
same,"viability, T/C","second compound 10 µM, first compound 0.1 µM",14.4%
C=CC(=O)N1CCN(c2nc(=O)n(-c3c(C)ccnc3C(C)C)c3nc(-c4c(O)cccc4F)c(F)cc23)C(C)C1 (stereo unspecified),"viability, T/C",compound 0.0316 µM,100% [middle of 4 runs]
same,"viability, T/C",compound 0.1 µM,95% [middle of 4 runs]
same,"viability, T/C",compound 0.316 µM,95.7% [middle of 4 runs]
same,"viability, T/C",compound 1 µM,97.1% [middle of 4 runs]
same,"viability, T/C",compound 3.16 µM,105% [middle of 4 runs]
same,"viability, T/C",compound 10 µM,96.5% (2×) and 104% and 105%
same,IC50,curve of compound,> 10000 nM
